Assay results published in publication PMC7684578, “Isopedopeptins A–H: Cationic Cyclic Lipodepsipeptides from Pedobacter cryoconitis UP508 Targeting WHO Top-Priority Carbapenem-Resistant Bacteria” (ACS Chemical Biology, 2020).
Converted amounts (≈) assume the structure as drawn. Starred links: 1 amine or outer side, 2 acyl side, 3 side chain; linkers in the order of their positions; H or OH if unused. Positions of bridges follow the written chain, without caps; N, C: chain ends. Non-standard residues stand in square brackets, D forms with d. Residues, ends and D or L forms follow the SMILES beside them. X4 = CC(C)CCC=CCCC[C@H](CC(=O)[*:1])O[*:2]; X6 = CC(C)CCCCC=CC[C@H](CC(=O)[*:1])O[*:2]; X5 = CC(C)CCCCCCC[C@H](CC(=O)[*:1])O[*:2]; X3 = CC(C)CCCCC[C@H](CC(=O)[*:1])O[*:2]; X7 = CCCCCCC=CC[C@H](CC(=O)[*:1])O[*:2]; X2 = CCCCCCC[C@H](CC(=O)[*:1])O[*:2]; Val(3-OH) = CC(C)(O)[C@H](N)C(=O)O; X1 = C/C=C(/N[*:1])C(=O)[*:2]; Dab = NCC[C@H](N)C(=O)O; Dap = NC[C@H](N)C(=O)O

How the values were obtained:
Test in all cases: MIC, broth micro-dilution, primary panel
P. aeruginosa LMG6395T = format: cell-based, Pseudomonas aeruginosa; settings: WT; for MIC: Pseudomonas aeruginosa, LMG6395T
Method: (§1) Isopedopeptin E (5): off-white solid; [α] D20 –36° (c 0.3 in methanol); UV (MeOH) λ max (log10 ε) 240 (3.8); 1H NMR (DMSO-d 6, 600 MHz), see Table S5; 13C NMR (DMSO-d 6, 150 MHz), see Table […]
(§2) Isopedopeptin F (6): off-white solid; [α] D20 –32° (c 0.05 in methanol); UV (MeOH) λ max (log10 ε) 240 (3.8); 1H NMR (DMSO-d 6, 600 MHz), see Table S6; 13C NMR (DMSO-d 6, 150 MHz), see Table […]
(§3) Isopedopeptin G (7): off-white solid; [α] D20 –49° (c 0.1 in methanol); UV (MeOH) λ max (log10 ε) 240 (4.0); 1H NMR (DMSO-d 6, 600 MHz), see Table S7; 13C NMR (DMSO-d 6, 150 MHz), see Table […]
(§4) Isopedopeptin H (8): off-white solid; [α] D20 –56° (c 0.2 in methanol); UV (MeOH) λ max (log10 ε) 240 (4.0); 1H NMR (DMSO-d 6, 600 MHz), see Table S8; 13C NMR (DMSO-d 6, 150 MHz), see Table […]
(§5) Minimal Inhibitory Concentration (MIC) against the primary panel of microorganisms.
(§6) The MIC for compounds 1–8 was measured by means of a broth micro-dilution method in 96-wells microtiter plates with the addition of E. coli LMG15862, LMG1041 T, E. cloacaeA. baumannii […]
(§7) H-29 and A. fumigatus J7, as test organisms. The test media were AM3 Broth (BD Difco Ltd) mixed with phosphate buffered saline (PBS, Amresco LLC, Solon, USA) in 1:4 ratio (E. coli, A. baumannii, E. cloacae, K. pneumoniae and P. aeruginosa), AM3 Broth mixed with PBS in 1:1 ratio (S. aureus), ME (A. fumigatus) and ISP2 (C. albicans). Prior to MIC determination, the cell concentration of tested bacterial/fungal pathogens was adjusted to ≅ 4 × 10^5 CFU/mL (acceptable range 2 – 6 × 10^5 CFU/mL). Cell concentration was confirmed by colony counting after diluting and plating the respective bacterial pathogen on VPA plates [VPA, 10 g Vegetable Peptone Broth (Oxoid Ltd., Basingstoke,UK), 15 g Bacto Agar (Difco Ltd, Tyrone) in 1 L deionised water] directly after each of MIC-tests. The cells of C. albicans were plated on ISP2 agar plates [ISP2, 15 g Bacto Agar (Difco Ltd) in 1 L deionised water] and respectively spores of A. fumigatus were plated on MEA plates.
(§8) Plates were, subsequently, incubated at 37 °C in the dark, and viable colonies counted after 16 to 24 h.
(§9) To estimate MIC values (concentration range between 0.05 and 50 µg/mL), solutions of the tested compounds (100, 10 and 1 and if needed 0.1 µg/mL in MeOH) were dispensed into wells of microtiter plate(s) and the solvent was evaporated in a fume-hood. Subsequently, suspensions of pathogen cells in the appropriate medium were dispensed to the wells of microtiter plates and the growth of pathogens were observed after 16 to 20 h of incubation at 37 °C in the dark. Positive controls were the respective pathogen cells suspended in untreated sterile media without addition of compounds(s) and negative controls were the media only. MIC values were defined as the lowest concentration of each compound with no visible growth of pathogen. All MIC tests were performed in triplicate and […]
(§10) MIC determination for compound 2 against an extended panel of bacterial strains.
(§11) Compound 2 was evaluated against a panel of Gram-negative bacteria (Hughes strain collection), including: A. baumannii ATCC 19606, wild-type; BM4454, multidrug-resistant clinical isolate; BM4652, efflux-defective derivative of BM4454; CH9622, colistin-resistant clinical isolate; E. coli ATCC 25922, wild-type; CH3130, efflux-defective ΔtolC mutant isogenic to ATCC 25922; D22, a drug-hypersensitive lpxC mutant of E. coli; CH3491, multidrug-resistant clinical isolate; CH9623 and CH9624, colistin-resistant clinical isolates carrying mcr-1; K. pneumoniae ATCC 13833, wild-type; […]
(§12) clinical isolate; CH9625 and CH9626, colistin-resistant clinical isolates; P. aeruginosa PAO1, wild-type; PAO750, efflux-defective mutant isogenic to PAO1. The in vitro antimicrobial activity of each compound was determined by measuring the MIC value using the broth micro-dilution technique in cation-adjusted Mueller-Hinton II broth (Becton-Dickinson, 212322) according to EUCAST and CLSI guidelines. Each compound prepared in MHII medium was dispensed into a 96-well round- […]

E. cloacae LMG2783T = format: cell-based; settings: Enterobacter cloacae, WT
Method: as §1, §2, §3, §4, §5, §6, §7, §8, §9, §10, §11, §12

B. cereus CCUG7414T = format: cell-based; settings: Bacillus cereus
Method: as §1, §2, §3, §4, §5, §6, §7, §8, §9, §10, §11, §12

A. baumannii LMG1041T = format: cell-based; settings: Acinetobacter baumannii, WT
Method: as §1, §2, §3, §4, §5, §6, §7, §8, §9, §10, §11, §12

E. coli LMG15862 = format: cell-based; settings: Escherichia coli, β-lactam.
Method: as §1, §2, §3, §4, §5, §6, §7, §8, §9, §10, §11, §12

S. aureus LMG15975 = format: cell-based; settings: Staphylococcus aureus, LMG15975 / MRSA
Method: as §1, §2, §3, §4, §5, §6, §7, §8, §9, §10, §11, §12

A. fumigatus J7 = format: cell-based; settings: Aspergillus fumigatus
Method: as §1, §2, §3, §4, §5, §6, §7, §8, §9, §10, §11, §12

C. albicans H-29 = format: cell-based; settings: Candida albicans, H29; WT
Method: as §1, §2, §3, §4, §5, §6, §7, §8, §9, §10, §11, §12

SMILES | MIC (P. aeruginosa LMG6395T) [µg/mL] | MIC P. aeruginosa LMG6395T (P. aeruginosa LMG6395T) [µg/mL] | MIC (E. cloacae LMG2783T) [µg/mL] | MIC (B. cereus CCUG7414T) [µg/mL] | MIC (A. baumannii LMG1041T) [µg/mL] | MIC (E. coli LMG15862) [µg/mL] | MIC (S. aureus LMG15975) [µg/mL] | MIC (A. fumigatus J7) [µg/mL] | MIC (C. albicans H-29) [µg/mL]
C/C=C1/NC(=O)[C@H](CCN)NC(=O)[C@H](CC(C)C)NC(=O)[C@H](CN)NC(=O)C[C@@H](CCCCCC(C)C)OC(=O)[C@H](CC(=O)O)NC(=O)[C@H](C(C)(C)O)NC(=O)[C@@H](Cc2ccccc2)NC(=O)[C@H](CN)NC(=O)[C@H]([C@@H](C)O)NC1=O [Compound 1, cyclo(3-hydroxy-9-methyldecanoyl-DAPA1-Leu-DABA-ABA-Thr-DAPA2-Phe-OHVal-Asp)] ([Dap]L[Dab][X1]T[Dap][dF][Val(3-OH)]D; linker N-C via X3) | 8 to 16 (≈ 7.07 to 14.1 µM) | 16 (≈ 14.1 µM) | 16 (≈ 14.1 µM) | > 32 | 4 (≈ 3.54 µM) | 4 (≈ 3.54 µM) | > 32 | > 32 | 32 (≈ 28.3 µM)
C/C=C1/NC(=O)[C@H](CCN)NC(=O)[C@H](CC(C)C)NC(=O)[C@H](CN)NC(=O)C[C@@H](CCCCCCC)OC(=O)[C@H](CC(=O)O)NC(=O)[C@H](C(C)(C)O)NC(=O)[C@@H](Cc2ccccc2)NC(=O)[C@H](CN)NC(=O)[C@H]([C@@H](C)O)NC1=O [Compound 2, isopedopeptin B] ([Dap]L[Dab][X1]T[Dap][dF][Val(3-OH)]D; linker N-C via X2) | 8 to 16 (≈ 7.16 to 14.3 µM) | 16 (≈ 14.3 µM) | 32 (≈ 28.6 µM) | > 32 | 8 (≈ 7.16 µM) | 8 (≈ 7.16 µM) | 32 (≈ 28.6 µM) | > 32 | 32 (≈ 28.6 µM)
C/C=C1/NC(=O)[C@H](CCN)NC(=O)[C@H](CC(C)C)NC(=O)[C@H](CN)NC(=O)C[C@@H](CC=CCCCCCC)OC(=O)[C@H](CC(=O)O)NC(=O)[C@H](C(C)(C)O)NC(=O)[C@@H](Cc2ccccc2)NC(=O)[C@H](CN)NC(=O)[C@H]([C@@H](C)O)NC1=O [Compound 3, isopedopeptin C] ([Dap]L[Dab][X1]T[Dap][dF][Val(3-OH)]D; linker N-C via X7) | 32 (≈ 28 µM) | – | 32 (≈ 28 µM) | 32 (≈ 28 µM) | 16 (≈ 14 µM) | 16 (≈ 14 µM) | > 32 | > 32 | 32 (≈ 28 µM)
C/C=C1/NC(=O)[C@H](CCN)NC(=O)[C@H](CC(C)C)NC(=O)[C@H](CN)NC(=O)C[C@@H](CCCCCCC)OC(=O)[C@H](CC(=O)O)NC(=O)[C@H](C(C)C)NC(=O)[C@@H](Cc2ccccc2)NC(=O)[C@H](CN)NC(=O)[C@H]([C@@H](C)O)NC1=O [Compound 4, isopedopeptin D] ([Dap]L[Dab][X1]T[Dap][dF]VD; linker N-C via X2) | > 32 | – | 32 (≈ 29.1 µM) | 32 (≈ 29.1 µM) | 16 (≈ 14.5 µM) | 32 (≈ 29.1 µM) | > 32 | > 32 | > 32
C/C=C1/NC(=O)[C@H](CCN)NC(=O)[C@H](CC(C)C)NC(=O)[C@H](CN)NC(=O)C[C@@H](CCCCCC(C)C)OC(=O)[C@H](CC(=O)O)NC(=O)[C@H](C(C)C)NC(=O)[C@@H](Cc2ccccc2)NC(=O)[C@H](CN)NC(=O)[C@H]([C@@H](C)O)NC1=O [Compound 5, Isopedopeptin E] ([Dap]L[Dab][X1]T[Dap][dF]VD; linker N-C via X3) | 32 (≈ 28.7 µM) | – | > 32 | 16 (≈ 14.3 µM) | 32 (≈ 28.7 µM) | > 32 | > 32 | > 32 | > 32
C/C=C1/NC(=O)[C@H](CCN)NC(=O)[C@H](CC(C)C)NC(=O)[C@H](CN)NC(=O)C[C@@H](CCCCCCCC(C)C)OC(=O)[C@H](CC(=O)O)NC(=O)[C@H](C(C)(C)O)NC(=O)[C@@H](Cc2ccccc2)NC(=O)[C@H](CN)NC(=O)[C@H]([C@@H](C)O)NC1=O [Compound 6, Isopedopeptin F] ([Dap]L[Dab][X1]T[Dap][dF][Val(3-OH)]D; linker N-C via X5) | 32 (≈ 27.6 µM) | – | 32 (≈ 27.6 µM) | 32 (≈ 27.6 µM) | 16 (≈ 13.8 µM) | 16 (≈ 13.8 µM) | 32 (≈ 27.6 µM) | > 32 | > 32
C/C=C1/NC(=O)[C@H](CCN)NC(=O)[C@H](CC(C)C)NC(=O)[C@H](CN)NC(=O)C[C@@H](CCCC=CCCC(C)C)OC(=O)[C@H](CC(=O)O)NC(=O)[C@H](C(C)C)NC(=O)[C@@H](Cc2ccccc2)NC(=O)[C@H](CN)NC(=O)[C@H]([C@@H](C)O)NC1=O [Compound 7, Isopedopeptin G] ([Dap]L[Dab][X1]T[Dap][dF]VD; linker N-C via X4) | 8 to 16 (≈ 7.01 to 14 µM) | 8 (≈ 7.01 µM) | 16 (≈ 14 µM) | 16 (≈ 14 µM) | 8 (≈ 7.01 µM) | 8 (≈ 7.01 µM) | 16 (≈ 14 µM) | > 32 | > 32
C/C=C1/NC(=O)[C@H](CCN)NC(=O)[C@H](CC(C)C)NC(=O)[C@H](CN)NC(=O)C[C@@H](CC=CCCCCC(C)C)OC(=O)[C@H](CC(=O)O)NC(=O)[C@H](C(C)C)NC(=O)[C@@H](Cc2ccccc2)NC(=O)[C@H](CN)NC(=O)[C@H]([C@@H](C)O)NC1=O [Compound 8, Isopedopeptin H] ([Dap]L[Dab][X1]T[Dap][dF]VD; linker N-C via X6) | 16 (≈ 14 µM) | – | 16 (≈ 14 µM) | 32 (≈ 28 µM) | 16 (≈ 14 µM) | 16 (≈ 14 µM) | 16 (≈ 14 µM) | > 32 | > 32
